Experimental data: patent US20250102414A1, “A MICROFLUIDIC DEVICE FOR DETECTING AND CHARACTERIZING AT LEAST ONE ANALYTE, FOR EXAMPLE A CELL, IN A SAMPLE FLUID” (TECHNISCHE UNIVERSITEIT EINDHOVEN, priority 2022, published 2025)

Experiments:
MCF-7 cells [1] = assay: Commercially available apoptosis detection kit for fluorescent imaging (validation); type: cell-based; settings: 1 μM STS, 3 days
Procedure: (§1) In parallel, a control sample was also cultured under the same conditions without drug exposure was also analyzed for comparison. […] For the control sample, only one cluster, which were viable cells, were identified with 97% ratio for the total number of events. For the treated sample, 3 clusters were identified for viable, early apoptotic, and late apoptotic states with 44%, 19%, and 37% ratios, respectively. For validation, a commercially available apoptosis detection kit for fluorescent imaging were used and it provided the ratios of 47% viable and 53% apoptotic for the treated sample. A high-resolution drug response analysis were performed in a fully label free manner while keeping the cells intact, where the imaging required sample preparation and fixation of the cells, which kills the cells and the possibility of further functional analysis options.

MCF-7 cells [2] = assay: Label-free drug response analysis by electrical impedance (opacity) with the microfluidic device; type: cell-based; settings: 1 μM STS, cultured 3 days under drug exposure, opacity clusters
Procedure: FIGS. 14a and 14b show the results of a drug response analysis for MCF-7 cells. As a first step, the viability of the cells was measured before and after analyzing these cells using one of the versions of the devices described in the present disclosure. […] Then, STS (with 1 μM concentration) were added to this well and the cells were cultured for another 3 days under the exposure of the drug.
as §1
Accordingly, embodiments of the present disclosure are capable of achieving measurement results when the electric field generating unit in the embodiments of the present disclosure delivers a voltage drop between electrodes of the present disclosure within the range of 0.1 to 0.5 V and, preferably, within the range of 0.2 to 0.4 V. The results shown in FIGS. 12, 13 and 14 were obtained with voltage values varying between 0.2-0.4 V for frequencies between 1-400 MHz with the maximum reachable voltage drop of 0.12 V, which is below the electroporation limit. […] These to be determined based on the sample, used electrolyte (medium conductivity), peripheral electronics (analyzers, power sources, etc.), size of the measurement volume, and the requirements of the analysis.

CN[C@@H]1C[C@H]2O[C@@](C)([C@@H]1OC)n1c3ccccc3c3c4c(c5c6ccccc6n2c5c31)C(=O)NC4 [STS]
ratio apoptotic (MCF-7 cells [1]): 53% | ratio viable (MCF-7 cells [1]): 47% | ratio of early apoptotic cluster to total number of events (MCF-7 cells [2]): 19% | ratio of late apoptotic cluster to total number of events (MCF-7 cells [2]): 37% | ratio of viable cluster to total number of events (MCF-7 cells [2]): 44%
